Where “and” joins values, the source holds several entries; their conditions need not be identical. Equal entries are not always repeated.
Target: EGFR (Human), P00533 [T790M/L858R]
Details: nci-h1975

Chain of EGFR (Human), P00533 [T790M/L858R] (P00533 whole entry T790M/L858R, looked up): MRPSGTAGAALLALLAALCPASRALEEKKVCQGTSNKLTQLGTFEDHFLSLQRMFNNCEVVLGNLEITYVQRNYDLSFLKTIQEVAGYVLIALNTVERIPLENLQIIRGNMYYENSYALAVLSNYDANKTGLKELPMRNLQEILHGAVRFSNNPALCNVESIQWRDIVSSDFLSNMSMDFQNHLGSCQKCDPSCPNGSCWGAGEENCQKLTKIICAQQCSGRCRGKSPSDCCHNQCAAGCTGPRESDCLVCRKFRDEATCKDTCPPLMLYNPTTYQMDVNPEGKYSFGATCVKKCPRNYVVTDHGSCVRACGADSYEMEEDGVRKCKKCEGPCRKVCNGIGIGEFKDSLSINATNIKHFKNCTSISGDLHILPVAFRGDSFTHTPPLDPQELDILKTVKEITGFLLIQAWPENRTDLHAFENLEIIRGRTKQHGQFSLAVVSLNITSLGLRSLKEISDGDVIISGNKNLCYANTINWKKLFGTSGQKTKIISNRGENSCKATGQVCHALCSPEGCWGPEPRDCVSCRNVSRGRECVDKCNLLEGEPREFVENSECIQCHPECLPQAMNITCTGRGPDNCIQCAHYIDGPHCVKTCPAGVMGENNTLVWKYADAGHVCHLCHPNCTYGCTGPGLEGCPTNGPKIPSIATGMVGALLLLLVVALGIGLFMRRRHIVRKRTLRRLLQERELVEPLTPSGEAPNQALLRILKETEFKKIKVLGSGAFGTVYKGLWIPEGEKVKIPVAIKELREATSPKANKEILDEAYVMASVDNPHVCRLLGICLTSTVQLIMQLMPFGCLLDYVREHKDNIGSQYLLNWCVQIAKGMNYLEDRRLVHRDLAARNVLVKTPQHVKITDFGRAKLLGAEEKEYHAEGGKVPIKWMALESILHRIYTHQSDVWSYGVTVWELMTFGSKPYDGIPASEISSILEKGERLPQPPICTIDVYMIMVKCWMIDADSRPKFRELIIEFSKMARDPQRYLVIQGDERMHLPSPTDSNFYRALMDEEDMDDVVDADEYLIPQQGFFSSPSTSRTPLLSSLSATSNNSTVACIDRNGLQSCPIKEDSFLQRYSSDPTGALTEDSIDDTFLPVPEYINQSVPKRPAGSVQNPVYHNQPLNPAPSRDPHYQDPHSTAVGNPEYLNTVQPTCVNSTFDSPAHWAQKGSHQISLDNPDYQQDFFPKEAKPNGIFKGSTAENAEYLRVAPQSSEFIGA

EC50	SMILES
738 nM	CC(C)n1nc(N2CCNC(=O)C2)c2cnc(Nc3ccnc(-c4cnn(S(=O)(=O)C5CC5)c4)n3)cc21
266 nM	CC(O)C1CN(c2nn(C(C)C)c3cc(Nc4ccnc(-c5cnn(S(=O)(=O)C6CC6)c5)n4)ncc23)C1 (stereo unspecified)
312 nM	CC(C)n1nc(N2CC(F)(F)C2)c2cnc(Nc3ccnc(-c4cnn(S(=O)(=O)C5CC5)c4)n3)cc21
1470 nM	CCC(C)n1nc(N2CC[C@@H](O)C2)c2cnc(Nc3ccnc(N4CCC(CC#N)(OC)CC4)n3)cc21 (stereo partly specified)
288 nM	CCC(C)n1nc(N2CC(C(C)(C)O)C2)c2cnc(Nc3ccnc(N4CCC(O)C(C)(C)C4)n3)cc21 (stereo unspecified)
> 10000 nM	CC(C)n1nc(N2CC(N)CC2=O)c2cnc(Nc3ccnc(N4CCC(C)(O)CC4)n3)cc21 (stereo unspecified)
874 nM and 631 nM	CC[C@H](C)n1nc(N2CC3(COC3)C2)c2cnc(Nc3ccnc(N4CC[C@](C)(O)[C@H](F)C4)n3)cc21
1760 nM	CCC(C)n1nc(N2CCNC(=O)C2)c2cnc(Nc3ccnc(N4CCC(C)(O)CC4)n3)cc21 (stereo unspecified)
429 nM	CC[C@H](C)n1nc(N2CC(C(C)(C)O)C2)c2cnc(Nc3ccnc(N4CC[C@@H](O)[C@@H](F)C4)n3)cc21
377 nM	CC1CN(c2nn(C(C)C)c3cc(Nc4ccnc(-c5cnn(S(=O)(=O)C6CC6)c5)n4)ncc23)C(=O)N1 (stereo unspecified)
1060 nM	CC(C)n1nc(N2CCCC2)c2cnc(Nc3ccnc(-c4cnn(CC5CC5)c4)n3)cc21
432 nM	CC(C)n1nc(N2CC(N3CCOCC3)C2)c2cnc(Nc3ccnc(-c4cnn(S(=O)(=O)C5CC5)c4)n3)cc21
232 nM	CC(C)n1nc(N2CCCC2=O)c2cnc(Nc3ccnc(-c4cnn(S(=O)(=O)C5CC5)c4)n3)cc21
348 nM	CC(C)n1nc(N2CC(C(=O)N(C)C)C2)c2cnc(Nc3ccnc(N4CCC(O)C(C)(C)C4)n3)cc21 (stereo unspecified)
397 nM	CCS(=O)(=O)n1cc(-c2nccc(Nc3cc4c(cn3)c(N3CC(CO)C3)nn4C(C)C)n2)cn1
1450 nM	COCCNC(=O)C1CN(c2nn(C(C)C)c3cc(Nc4ccnc(-c5cnn(S(=O)(=O)C6CC6)c5)n4)ncc23)C1
9980 nM	CCC(C)n1nc(N2CCS(=N)(=O)CC2)c2cnc(Nc3ccnc(N4CCC(C)(O)CC4)n3)cc21 (stereo unspecified)
8120 nM	CC(C)n1nc(N2CC[C@@H](N)C2=O)c2cnc(Nc3ccnc(N4CCC(C)(O)CC4)n3)cc21
373 nM	CC(C)n1nc(N[C@H]2CCOC2)c2cnc(Nc3ccnc(-c4cnn(S(=O)(=O)C5CC5)c4)n3)cc21
732 nM	CC(C)n1nc(N2CC3(COC3)C2)c2cnc(Nc3ccnc(-c4cnn(CC5CC5)c4)n3)cc21
423 nM	CC(C)n1nc(N2CC(C(C)(C)O)C2)c2cnc(Nc3ccnc(-c4cnn(S(=O)(=O)C5CC5)c4)n3)cc21

EC50	SMILES
121 nM	CC(C)n1nc(N2CC[C@@H](C#N)C2)c2cnc(Nc3ccnc(-c4cnn(S(=O)(=O)C5CC5)c4)n3)cc21
5590 nM	CCC(C)n1nc(N2C[C@@H](CO)NC2=O)c2cnc(Nc3ccnc(-c4cnn(S(=O)(=O)C5CC5)c4)n3)cc21 (stereo partly specified)
2020 nM	CC(C)n1nc(N2CCS(=O)(=O)CC2)c2cnc(Nc3ccnc(-c4cnn(S(=O)(=O)C5CC5)c4)n3)cc21
3910 nM	CC(C)n1nc(N2CC3(C2)C[S+]([O-])C3)c2cnc(Nc3ccnc(N4CCC(C)(O)CC4)n3)cc21
138 nM	CCC(C)n1nc(N2CCNC2=O)c2cnc(Nc3ccnc(-c4cnn(S(=O)(=O)C5CC5)c4)n3)cc21 (stereo unspecified)
1460 nM	CC(C)n1nc(C2CCOC2)c2cnc(Nc3ccnc(-c4cnn(S(=O)(=O)C5CC5)c4)n3)cc21 (stereo unspecified)
237 nM	CC(C)n1nc(N2CCN=C2O)c2cnc(Nc3ccnc(-c4cnn(S(=O)(=O)C5CC5)c4)n3)cc21
921 nM	CCS(=O)(=O)n1cc(-c2nccc(Nc3cc4c(cn3)c(NC3COC3)nn4C(C)C)n2)cn1
190 nM	CC(C)n1nc(N2CC[C@@H](O)C2)c2cnc(Nc3ccnc(-c4cnn(S(=O)(=O)C5CC5)c4)n3)cc21
901 nM	CC(n1nc(N2CC[C@@H](O)C2)c2cnc(Nc3ccnc(N4CCC(C)(O)CC4)n3)cc21)C(F)(F)F (stereo partly specified)
159 nM	CC(C)n1nc(N2CC3(COC3)C2)c2cnc(Nc3ccnc(N4CCC(O)C(C)(C)C4)n3)cc21 (stereo unspecified)
3090 nM	CC(C)n1nc(N2CC3(C2)CS(=O)(=O)C3)c2cnc(Nc3ccnc(N4CCC(C)(O)CC4)n3)cc21
240 nM	CC(C)n1nc(N2C[C@H](O)[C@@H](F)C2)c2cnc(Nc3ccnc(-c4cnn(S(=O)(=O)C5CC5)c4)n3)cc21
206 nM	CC(C)n1nc(N2CCOC2=O)c2cnc(Nc3ccnc(-c4cnn(S(=O)(=O)C5CC5)c4)n3)cc21
8270 nM	CC(C)n1nc(NC(C)(C)C#N)c2cnc(Nc3ccnc(N4CC[C@H](O)[C@H](F)C4)n3)cc21
158 nM	CC(C)n1nc(N2CCC2)c2cnc(Nc3ccnc(-c4cnn(S(=O)(=O)C5CC5)c4)n3)cc21
775 nM	CC(C)n1nc(N[C@@H]2CCOC2)c2cnc(Nc3ccnc(-c4cnn(S(=O)(=O)C5CC5)c4)n3)cc21
1070 nM	CC(n1nc(N2CCNC2=O)c2cnc(Nc3ccnc(N4CCC(C)(O)CC4)n3)cc21)C(F)(F)F (stereo unspecified)
5440 nM	CC(C)n1nc(NCC(N)=O)c2cnc(Nc3ccnc(-c4cnn(S(=O)(=O)C5CC5)c4)n3)cc21
162 nM	CC(C)n1nc(N2CC[C@@H](CO)C2)c2cnc(Nc3ccnc(-c4cnn(S(=O)(=O)C5CC5)c4)n3)cc21
> 10000 nM	CC(C)n1nc(NCC(F)(F)F)c2cnc(Nc3ccnc(-c4cnn(S(=O)(=O)C5CC5)c4)n3)cc21

EC50	SMILES
289 nM	CC(C)n1nc(N2CC(C)(O)C2)c2cnc(Nc3ccnc(-c4cnn(S(=O)(=O)C5CC5)c4)n3)cc21
404 nM	CC(C)n1nc(N2CC[C@@H](O)C2)c2cnc(Nc3ccnc(N4CC[C@@H](O)[C@@H](F)C4)n3)cc21
300 nM	CCC(C)n1nc(N2CCCC2=O)c2cnc(Nc3ccnc(N4CC[C@@H](O)[C@@H](F)C4)n3)cc21 (stereo partly specified)
831 nM	CC(C)n1nc(N2CC[C@@H](O)C2)c2cnc(Nc3ccnc(N4CCC(C)(O)CC4)n3)cc21
1140 nM	CC(C)n1nc(N2CC3(CN(CC(F)(F)F)C3)C2)c2cnc(Nc3ccnc(-c4cnn(S(=O)(=O)C5CC5)c4)n3)cc21
1120 nM	CC(C)n1nc(N2CC(O)C2)c2cnc(Nc3ccnc(-c4cnn(S(=O)(=O)C5CC5)c4)n3)cc21
2860 nM	CC(C)n1nc(N2CCC(C)(C(N)=O)C2)c2cnc(Nc3ccnc(N4CCC(C)(O)CC4)n3)cc21 (stereo unspecified)
1330 nM	CC(C)n1nc(N2CC(O)C(F)(F)C2)c2cnc(Nc3ccnc(N4CCC(C)(O)CC4)n3)cc21 (stereo unspecified)
1100 nM	CC(C)n1nc(N2CC(C#N)CC2=O)c2cnc(Nc3ccnc(N4CCC(C)(O)CC4)n3)cc21 (stereo unspecified)
938 nM	CC(C)n1nc(N2CC(C(N)=O)C2)c2cnc(Nc3ccnc(-c4cnn(S(=O)(=O)C5CC5)c4)n3)cc21
877 nM	CC(C)n1nc(NCCO)c2cnc(Nc3ccnc(-c4cnn(S(=O)(=O)C5CC5)c4)n3)cc21
813 nM	CCC(C)n1nc(N2CCN(C(=O)[C@H](C)O)CC2)c2cnc(Nc3ccnc(-c4cnn(S(=O)(=O)C5CC5)c4)n3)cc21 (stereo partly specified)
1380 nM	CC(C)n1nc(N2CC(C(C)(C)C#N)C2)c2cnc(Nc3ccnc(-c4cnn(S(=O)(=O)C5CC5)c4)n3)cc21
421 nM	CC(C)n1nc(N2CC3(COC3)C2)c2cnc(Nc3ccnc(-c4cnn(S(=O)(=O)C5CC5)c4)n3)cc21
3290 nM	CC(n1nc(N2CC3(COC3)C2)c2cnc(Nc3ccnc(N4CCC(C)(O)CC4)n3)cc21)C(F)(F)F (stereo unspecified)
201 nM	CC(C)n1nc(N2CCC(O)C2)c2cnc(Nc3ccnc(-c4cnn(S(=O)(=O)C5CC5)c4)n3)cc21 (stereo unspecified)
388 nM	COC1CCN(c2nccc(Nc3cc4c(cn3)c(N3CC5(COC5)C3)nn4C(C)C)n2)CC1
> 10000 nM	CC(C)n1nc(N2CCN(C)C2=O)c2cnc(Nc3ccnc(-c4cnn(S(=O)(=O)C5CC5)c4)n3)cc21
139 nM	CC(C)n1nc(N2CC[C@H](CO)C2)c2cnc(Nc3ccnc(-c4cnn(S(=O)(=O)C5CC5)c4)n3)cc21
1240 nM	CC[C@@H](C)n1nc(N2CC3(COC3)C2)c2cnc(Nc3ccnc(OCC(C)(C)S(C)(=O)=O)n3)cc21
586 nM	CCC(C)n1nc(N2CC[C@@H](O)C2=O)c2cnc(Nc3ccnc(-c4cnn(S(=O)(=O)C5CC5)c4)n3)cc21 (stereo partly specified)

EC50	SMILES
266 nM	CC(C)n1nc(N2CCOCC2)c2cnc(Nc3ccnc(-c4cnn(S(=O)(=O)C5CC5)c4)n3)cc21
167 nM	CC(C)n1nc(NC2COC2)c2cnc(Nc3ccnc(-c4cnn(S(=O)(=O)C5CC5)c4)n3)cc21
949 nM	CC(C)n1nc(N2CCS(=N)(=O)CC2)c2cnc(Nc3ccnc(-c4cnn(S(=O)(=O)C5CC5)c4)n3)cc21
> 10000 nM	CC(C)n1nc(NCCS(C)(=N)=O)c2cnc(Nc3ccnc(-c4cnn(S(=O)(=O)C5CC5)c4)n3)cc21 (stereo unspecified)
236 nM	CCS(=O)(=O)n1cc(-c2nccc(Nc3cc4c(cn3)c(N3CC(C(=O)N(C)C)C3)nn4C(C)C)n2)cn1
184 nM	CC(C)n1nc(N2CC(CC#N)C2)c2cnc(Nc3ccnc(-c4cnn(S(=O)(=O)C5CC5)c4)n3)cc21
> 10000 nM	CC(C)n1nc(N2CC(C(C)(C)C(N)=O)C2)c2cnc(Nc3ccnc(N4CCC(C)(O)CC4)n3)cc21
619 nM	CCC(C)n1nc(N2CC[C@@H](O)C2)c2cnc(Nc3ccnc(N4CCC(C)(O)CC4)n3)cc21 (stereo partly specified)
498 nM	CC(C)n1ncc2cnc(Nc3ccnc(-c4cnn(CC5CC5)c4)n3)cc21
144 nM	CC(C)n1nc(N2CC(C#N)C2)c2cnc(Nc3ccnc(-c4cnn(S(=O)(=O)C5CC5)c4)n3)cc21
334 nM	CC[C@@H](C)n1nc(N2CC(C(C)(C)O)C2)c2cnc(Nc3ccnc(N4CC[C@@H](O)[C@@H](F)C4)n3)cc21
3700 nM	CC(C)c1nn(C(C)C)c2cc(Nc3ccnc(-c4cnn(S(=O)(=O)C5CC5)c4)n3)ncc12
630 nM	CC(C)n1nc(N2CC[C@H](O)C2=O)c2cnc(Nc3ccnc(-c4cnn(S(=O)(=O)C5CC5)c4)n3)cc21
247 nM	CC(C)n1nc(N)c2cnc(Nc3ccnc(-c4cnn(S(=O)(=O)C5CC5)c4)n3)cc21
9730 nM	CC(C)n1nc(N2CC[C@H](N)C2=O)c2cnc(Nc3ccnc(N4CCC(C)(O)CC4)n3)cc21
785 nM	CC[C@H](C)n1nc(N2CC3(COC3)C2)c2cnc(Nc3ccnc(OCC(C)(C)S(C)(=O)=O)n3)cc21
380 nM	COC1CCN(c2nccc(Nc3cc4c(cn3)c(N3CCCC3)nn4C(C)C)n2)CC1
521 nM	CC[C@H](C)n1nc(N2CC[C@@H](O)C2)c2cnc(Nc3ccnc(N4CC[C@](C)(O)[C@H](F)C4)n3)cc21
